# According to patent publication US6710043B1, “Amide compounds” (Fujisawa Pharmaceutical Co., Ltd., priority 1999, dated 2004):
# Test system: Male Fischer 344 rats
# Test: Penile Erection in Rat
# Type: in vivo
# Conditions: male Fischer 344 rats (n=7), observed for 60 minutes, mean number
# Experimental: (This test was carried out according to a similar manner to that described in Jpn. J. Pharmacol., Vol. 64, 147-153 (1994))
# Male Fischer 344 rats at the age of 8 weeks (n=7) were used. All rats were handled 3 minutes a day for three successive days before the tests. The rats were tested in groups of seven and various doses of the test compound were given in semi-randomized order. The test compounds were suspended in 0.5% methyl-cellulose immediately before use, and given intraperitoneally in a volume of 1 ml/kg just before the start of test. […] A mirror was situated behind each box […]. Data was expressed as a mean number.
SMILES,Penile Erection (dose 0.32 mg/kg intraperitoneally) [number/hr],Penile Erection (dose 1 mg/kg intraperitoneally) [number/hr]
"O=C(NC1CCN(C(=O)C2CC2)CC1)c1ccc(F)cc1 [Example 19, N-(1-cyclopropylcarbonylpiperidin-4-yl)-4-fluorobenzamide]",0.75,–
"CC(=O)N1CCN(C(=O)Nc2ccc(F)cc2)CC1 [Example 2, 1-acetyl-4-(4-fluorophenylcarbamoyl)piperazine]",–,1.14
